According to patent US10925856B2, “Methods and compositions involving bucindolol for the treatment of atrial fibrillation” (priority 2018, dated 2021):
Like-named read-outs stand apart in the source and are kept apart here.

Tests used:
clinical = conditions: human, in vivo
From the text: Based on FDA interactions and recommendations^63 the inventor sought to categorize CYP2D6 genetic variation in every patient in GENETIC-AF.
CYP2D6 polymorphisms were identified using the xTAG® CYP2D6 Kit v3 manufactured by Luminex Corporation, with the assay performed by Esoterix, Boulder, Colo. on DNA extracted from whole blood by LabCorp's subsidiary Covance, of Salt Lake City, Utah See Table 41 in the Appendix for identified polymorphisms.
Sparse sampling of bucindolol hydrochloride plasma concentrations for population pharmacokinetic analysis. The analysis plan for the substudy will be prepared separately prior to unblinding.

[1] = biological target: T1, human β1-adrenergic receptor (Homo sapiens, UniProt P08588, G389R); test: Estimated β1-AR receptor occupancy from plasma concentration and KD; conditions: 12 weeks trough plasma concentration
T1 construct: from tissue; host or cells: notional myocardial receptor of GENETIC-AF patients; no receptor preparation was assayed

[2] = tested on: patients with HF and/or AF; test: Literature β-blocker trials and meta-analyses for AF prevention / recurrence; assay type: in vivo, human
[3] = CYP2D6 Extensive/Ultra Metabolizer
[4] = Drug Titration Period (first 42 days)
[5] = treatment-emergent AE, total follow-up

T1 sequence (P08588 whole entry G389R): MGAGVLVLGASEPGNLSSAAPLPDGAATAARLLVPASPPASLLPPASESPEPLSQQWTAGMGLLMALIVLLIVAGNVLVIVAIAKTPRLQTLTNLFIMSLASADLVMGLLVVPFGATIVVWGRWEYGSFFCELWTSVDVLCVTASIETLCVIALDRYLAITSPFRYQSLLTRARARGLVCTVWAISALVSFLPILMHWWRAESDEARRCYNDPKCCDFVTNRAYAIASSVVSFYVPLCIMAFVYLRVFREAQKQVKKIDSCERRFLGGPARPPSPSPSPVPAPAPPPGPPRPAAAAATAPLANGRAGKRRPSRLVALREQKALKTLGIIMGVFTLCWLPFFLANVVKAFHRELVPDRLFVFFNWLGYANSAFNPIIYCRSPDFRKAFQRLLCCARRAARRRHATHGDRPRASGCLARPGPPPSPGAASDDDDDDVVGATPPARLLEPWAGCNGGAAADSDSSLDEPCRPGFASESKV

SMILES: CC(C)(Cc1c[nH]c2ccccc12)NCC(O)COc1ccccc1C#N (stereo not drawn) [bucindolol, 2-(3-(1-(1H-indol-3-yl)-2-methylpropan-2-ylamino)-2-hydroxypropoxy)benzonitrile]
- Plasma concentration in PMs relative to IMs (clinical; 12 weeks): 5.7 fold
- concentration at 12 weeks (clinical; Drug levels as measured in PMs): 0.2 to 0.5 µM
- β1-AR receptor occupancy ([1]; CYP2D6 EMs): 85.2%
- β1-AR receptor occupancy ([1]; CYP2D6 IMs): 94.6%
- β1-AR receptor occupancy ([1]; CYP2D6 PMs): 99.0%
- Predicted relative effect size in favor of bucindolol vs. metoprolol ([2]; RES = Ln HzR1/Ln HzR2, prevention of AF in HFrEF): 2.1 fold
- Effect size in a direct comparison of bucindolol to metoprolol (estimated) ([2]; from relative effect size): 51%
- Risk ratio in a direct comparison of bucindolol to metoprolol (estimated) ([2]; from relative effect size): 0.49
- HEADACHE, % of patients [3]: (4.8%)
- HEADACHE, number of patients [3]: 5
- HYPOTENSION, % of patients [3]: (9.5%)
- HYPOTENSION, number of patients [3]: 10
- IMMUNE SYSTEM DISORDERS, % of patients [3]: (1.0%)
- IMMUNE SYSTEM DISORDERS, number of patients [3]: 1
- INFECTIONS AND INFESTATIONS, % of patients [3]: (28.6%)
- INFECTIONS AND INFESTATIONS, number of patients [3]: 30
- INFLUENZA, % of patients [3]: (2.9%)
- INFLUENZA, number of patients [3]: 3
- HEADACHE, % of patients (CYP2D6 Poor Metabolizer): (0.0%)
- HEADACHE, number of patients (CYP2D6 Poor Metabolizer): 0
- INFECTIONS AND INFESTATIONS, % of patients (CYP2D6 Poor Metabolizer): (33.3%)
- INFECTIONS AND INFESTATIONS, number of patients (CYP2D6 Poor Metabolizer): 4
- INFLUENZA, % of patients (CYP2D6 Poor Metabolizer): (8.3%)
- INFLUENZA, number of patients (CYP2D6 Poor Metabolizer): 1
- UPPER RESPIRATORY TRACT INFECTION, % of patients (CYP2D6 Poor Metabolizer): (8.3%)
- UPPER RESPIRATORY TRACT INFECTION, number of patients (CYP2D6 Poor Metabolizer): 1
- AC mortality or CV hosp or treatment disc. due to AE, patients N (%) [4]: 5 (4%)
- All-cause mortality, patients N (%) [4]: 0 (0%)
- AEs leading to study withdrawal (excluding death) (GENETIC-AF, all randomized patients): 1.5%
- Adverse event leading to death, patients N (%) (Total Study On-Drug Period): 2.3%
- Adverse events leading to study withdrawal (excluding death), patients N (%) (Total Study On-Drug Period): 2 (1.5%)
- Adverse event leading to death, patients N (%) (Total Study On-Drug Period, listed as Bucindolol): 3 (2.3%)
- AE SOC frequency: Cardiac Disorders (human, in vivo): 25.4%
- AE SOC frequency: Eye Disorders (human, in vivo): 6.0%
- AE SOC frequency: Gastrointestinal Disorders (human, in vivo): 20.9%
- AE SOC frequency: Hepatobiliary Disorders (human, in vivo): 3.7%
- AE SOC frequency: Infections and Infestations (human, in vivo): 28.4%
- AE SOC frequency: Investigators (human, in vivo): 12.7%
- AE SOC frequency: Metabolism and Nutrition Disorders (human, in vivo): 14.2%
- AE SOC frequency: Musculoskeletal and Connective Tissue Disorders (human, in vivo): 25.4%
- AE SOC frequency: Neoplasms Benign Malignant and Unspecified (human, in vivo): 2.2%
- AE SOC frequency: Renal and Urinary Disorders (human, in vivo): 10.4%
- AE SOC frequency: Respiratory, Thoracic and Mediastinal Disorders (human, in vivo): 15.7%
- AE frequency: arthralgia (human, in vivo): 5.2%
- AE frequency: cardiac failure (human, in vivo): 5.2%
- AE frequency: chronic kidney disease (human, in vivo): 3.0%
- AE frequency: constipation (human, in vivo): 6.0%
- AE frequency: epistaxis (human, in vivo): 3.0%
- AE frequency: hematuria (human, in vivo): 3.0%
- AE frequency: hypomagnesaemia (human, in vivo): 3.0%
- AE frequency: hypotension (human, in vivo): 9.7%
- AE frequency: pneumonia (human, in vivo): 3.0%
- AE frequency: upper respiratory tract infection (human, in vivo): 6.0%
- AE of symptomatic bradycardia or bradycardia leading to dose reduction or discontinuation of study drug, patients N (%) (human, in vivo): 4 (3.0%)
- AEs leading to permanent study drug discontinuation (human, in vivo): 8.2%
- AEs: Bradycardia (human, in vivo): 3.7%
- AEs: Stroke (99% on OACs) (human, in vivo): 0.0%
- Adverse event possible/probably related to study drug, patients N (%) (human, in vivo): 32 (23.9%)
- Adverse events leading to permanent study drug discontinuation, patients N (%) (human, in vivo): 11 (8.2%)
- Adverse events related to neoplasm, patients N (%) (human, in vivo): 3 (2.2%)
- Any bradycardia event, % of patients (human, in vivo): (4%)
- Any bradycardia event, number of patients (human, in vivo): 5
- Any bradycardia, % of patients (human, in vivo): (4%)
- Any bradycardia, number of patients (human, in vivo): 5
- Any serious adverse event, % of patients (human, in vivo): (25%)
- Any serious adverse event, number of patients (human, in vivo): 33
- Asymptomatic bradycardia event, % of patients (human, in vivo): (0%)
- Asymptomatic bradycardia event, number of patients (human, in vivo): 0
- Asymptomatic bradycardia, % of patients (human, in vivo): (0%)
- Asymptomatic bradycardia, number of patients (human, in vivo): 0
- Bradycardia event leading to study drug discontinuation, % of patients (human, in vivo): (1%)
- Bradycardia event leading to study drug discontinuation, number of patients (human, in vivo): 1
- Bradycardia event leading to study drug dose interruption, % of patients (human, in vivo): (0%)
- Bradycardia event leading to study drug dose interruption, number of patients (human, in vivo): 0
- Bradycardia event leading to study drug dose reduction, % of patients (human, in vivo): (2%)
- Bradycardia event leading to study drug dose reduction, number of patients (human, in vivo): 3
- CAD, % of patients (human, in vivo): (6%)
- CAD, number of patients (human, in vivo): 8
- Cardiac AE rate (heart failure or bradycardia events) (human, in vivo): 25%
- Cardiovascular serious adverse event, % of patients (human, in vivo): (9%)
- Cardiovascular serious adverse event, number of patients (human, in vivo): 12
- Catheterization, % of patients (human, in vivo): (4%)
- Catheterization, number of patients (human, in vivo): 5
- Heart block (Mobitz I/II, 2:1, or 3rd degree), % of patients (human, in vivo): (0%)
- Heart block (Mobitz I/II, 2:1, or 3rd degree), number of patients (human, in vivo): 0
- ICD Implantation, % of patients (human, in vivo): (4%)
- ICD Implantation, number of patients (human, in vivo): 5
- Incidence of Cr > 3.0, % of patients (human, in vivo): (1%)
- Incidence of Cr > 3.0, number of patients (human, in vivo): 1
- Incidence of bilirubin > 2.0, % of patients (human, in vivo): (1%)
- Incidence of bilirubin > 2.0, number of patients (human, in vivo): 1
- Non-CNS Embolism, % of patients (human, in vivo): (0%)
- Non-CNS Embolism, number of patients (human, in vivo): 0
- Pacemaker Implantation, % of patients (human, in vivo): (1%)
- Pacemaker Implantation, number of patients (human, in vivo): 1
- REPRODUCTIVE SYSTEM AND BREAST DISORDERS, % of patients (human, in vivo): (0.0%)
- REPRODUCTIVE SYSTEM AND BREAST DISORDERS, number of patients (human, in vivo): 0
- SAE SOC frequency: Infections and Infestations (human, in vivo): 4.5%
- SAE SOC frequency: Renal and Urinary Disorders (human, in vivo): 3.0%
- SAE SOC frequency: Respiratory, Thoracic and Mediastinal Disorders (human, in vivo): 5.2%
- SAE frequency: Cardiac Failure (human, in vivo): 3.0%
- SAE frequency: Cardiac Failure Congestive (human, in vivo): 2.2%
- SAEs: Any cardiovascular event (human, in vivo): 9.0%
- SINUS BRADYCARDIA, % of patients (human, in vivo): (0.0%)
- SINUS BRADYCARDIA, number of patients (human, in vivo): 0
- Stroke, % of patients (human, in vivo): (0%)
- Stroke, number of patients (human, in vivo): 0
- Symptomatic bradycardia event, % of patients (human, in vivo): (4%)
- Symptomatic bradycardia event, number of patients (human, in vivo): 5
- Symptomatic bradycardia, % of patients (human, in vivo): (4%)
- Symptomatic bradycardia, number of patients (human, in vivo): 5
- TIA, % of patients (human, in vivo): (0%)
- TIA, number of patients (human, in vivo): 0
- UPPER RESPIRATORY TRACT INFECTION, % of patients (human, in vivo): (5.7%)
- UPPER RESPIRATORY TRACT INFECTION, number of patients (human, in vivo): 6
- All-cause hospitalization, patients N (%) (human, in vivo, 42 days): 7 (5%)
- Any serious adverse event, patients N (%) (human, in vivo, 42 days): 8 (6%)
- Asymptomatic bradycardia, patients N (%) (human, in vivo, 42 days): 0 (0%)
- Cardiovascular hospitalization, patients N (%) (human, in vivo, 42 days): 5 (4%)
- Heart failure hospitalization, patients N (%) (human, in vivo, 42 days): 1 (1%)
- Symptomatic bradycardia, patients N (%) (human, in vivo, 42 days): 2 (1%)
- Treatment-related cardiovascular serious adverse event, patients N (%) (human, in vivo, 42 days): 0 (0%)
- Treatment-related serious adverse event, patients N (%) (human, in vivo, 42 days): 1 (1%)
- Ablation, % of patients (in vivo): (16%)
- Ablation, number of patients (in vivo): 21
- Additional ECV After Successful SR, % of patients (in vivo): (28%)
- Additional ECV After Successful SR, number of patients (in vivo): 37
- Anti-Arrhythmic Therapy, % of patients (in vivo): (34%)
- Anti-Arrhythmic Therapy, number of patients (in vivo): 46
- Appropriate Firing of on ICD, % of patients (in vivo): (0%)
- Appropriate Firing of on ICD, number of patients (in vivo): 0
- Bradycardia AEs (in vivo): none
- Rate Control Therapy, % of patients (in vivo): (15%)
- Rate Control Therapy, number of patients (in vivo): 20
- HEADACHE, % of patients [5]: (4.5%)
- HEADACHE, number of patients [5]: 6
- INFECTIONS AND INFESTATIONS, % of patients [5]: (26.9%)
- INFECTIONS AND INFESTATIONS, number of patients [5]: 36
- INFLUENZA, % of patients [5]: (3.0%)
- INFLUENZA, number of patients [5]: 4
- UPPER RESPIRATORY TRACT INFECTION, % of patients [5]: (5.2%)
- UPPER RESPIRATORY TRACT INFECTION, number of patients [5]: 7
- INFECTIONS AND INFESTATIONS, % of patients (treatment-emergent serious AE): (4.5%)
- INFECTIONS AND INFESTATIONS, number of patients (treatment-emergent serious AE): 6
